This is an account of results in patent publication US10709684B2, “SGLT-2 inhibitors for treating metabolic disorders in patients with renal impairment or chronic kidney disease” (Merck Sharp & Dohme Corp., priority 2014, dated 2020).

The term Cmax denotes the maximum level reached in the sampled fluid or tissue.

Like-named read-outs stand apart in the source and are kept apart here.

Common to all, as to assay type: in vivo, human
Series [1] has as its system urinary glucose excretion. Description: Phase 1 single dose study: pharmacodynamics, 24-hour urinary glucose excretion (UGE24). The conditions noted are these: single 15 mg oral dose; for Change from baseline in UGE24: fasted, geometric mean. The text has this:
(§1) Results of a Phase I, Single Dose Study to Study the Effect of Renal Impairment on the Pharmacokinetics and Pharmacodynamics of Ertugliflozin in Subjects with Type 2 Diabetes Mellitus (T2DM)
(§2) Ertugliflozin inhibits renal glucose reabsorption resulting in urinary glucose excretion, thereby reducing plasma glucose and HbA1c. The glycemic efficacy of SGLT2 inhibitors depends on the amount of glucose filtered through the kidney and the kidney is potentially a site of ertugliflozin metabolism. As renal impairment (RI) is a co-morbidity of T2DM, this study evaluated the effect of RI on the pharmacokinetics, pharmacodynamics (as measured by 24-hour urinary glucose excretion [UGE24]), safety, and tolerability of ertugliflozin in subjects with T2DM.
(§3) In this Phase 1, multi-center, open-label study, a single 15 mg oral dose of ertugliflozin was administered in the fasted state to healthy and T2DM subjects with normal renal function (estimated glomerular filtration rate [eGFR]≥90 mL/min) and in T2DM subjects with mild RI (eGFR 60-89 mL/min), moderate RI (eGFR 30-59 mL/min) and severe RI (eGFR<30 mL/min). Serial blood samples and urine samples at specified intervals were collected for 96 hours post-dose for pharmacokinetic evaluation and for measurement of UGE24.

The nature of series [2]: Phase 1 single dose study: pharmacokinetics of ertugliflozin in renal impairment. The conditions noted are these: single 15 mg oral dose; for AUC(0-inf) / Cmax: geometric mean.
From the text: as §1, §2, §3

Series [3] concerns healthy and T2DM subjects. Description: Phase 1 single dose study: safety and tolerability. The conditions noted are these: single 15 mg dose; subjects with normal renal function and T2DM subjects with renal impairment.
From the text: as §2, §3

Setting [4] is: Healthy Normal renal function (eGFR>=90 mL/min), n = 8, fasted.
The mark [5] stands for this setting: T2DM Normal renal function (eGFR>=90 mL/min), n = 6, fasted.

Take `CCOc1ccc(Cc2cc([C@]34OC[C@](CO)(O3)[C@@H](O)[C@H](O)[C@H]4O)ccc2Cl)cc1` [Ertugliflozin, (1S,2S,3S,4R,5S)-5-[4-chloro-3-(4-ethoxy-benzyl)-phenyl]-1-hydroxymethyl-6,8-dioxa-bicyclo[3.2.1]octane-2,3,4-triol]: the “Change from baseline in UGE24” value in series [1] (Healthy Normal renal function (eGFR>=90 mL/min), n = 8) amounted to 46.3 g; in series [1] (T2DM Mild RI (eGFR 60-89 mL/min), n = 8), 36.0 g; in series [1] (T2DM Moderate RI (eGFR 30-59 mL/min), n = 8) it was 27.6 g; in series [1] (T2DM Normal renal function (eGFR>=90 mL/min), n = 6), 72.3 g; in series [1] (T2DM Severe RI (eGFR<30 mL/min), n = 6), 10.1 g. Further, in series [1] (despite the higher exposure), the “UGE24 trend with renal function” value is “decreased with declining renal function”. The AUC(0-inf) is 1.236 µg·h/mL in series [2] (setting [4]); 1.199 µg·h/mL in series [2] (setting [5]); 1.91 µg·h/mL in series [2] (human, in vivo, po, 15 mg, T2DM Mild RI (eGFR 60-89 mL/min), n = 8, fasted, read-out: AUC0-inf); 2.08 µg·h/mL in series [2] (human, in vivo, po, 15 mg, T2DM Moderate RI (eGFR 30-59 mL/min), n = 8, fasted, read-out: AUC0-inf); 1.9 µg·h/mL in series [2] (human, in vivo, po, 15 mg, T2DM Severe RI (eGFR<30 mL/min), n = 6, fasted, read-out: AUC0-inf). Also, the Cmax in series [2] (setting [4]) is 0.219 µg/mL; in series [2] (T2DM Mild RI (eGFR 60-89 mL/min), n = 8, fasted), 0.313 µg/mL; in series [2] (T2DM Moderate RI (eGFR 30-59 mL/min), n = 8, fasted), 0.306 µg/mL; in series [2] (setting [5]), 0.216 µg/mL; in series [2] (T2DM Severe RI (eGFR<30 mL/min), n = 6, fasted), 0.196 µg/mL. The “effect of renal insufficiency on systemic exposure” value in series [2] (compared to subjects with normal renal function) was “moderately increased”. The “exposures in healthy subjects versus T2DM subjects with normal renal function” value in series [2] (fasted) is “similar”. For the same compound, in series [3], the tolerability entry was “well tolerated”.
